From patent publication US9428564B2, “Muscle function enhancing peptide” (Universitatsklinikum Heidelberg, priority 2009, dated 2016)
“Also recorded” adds a separate entry of the source. Where two headings read alike, the source gives them in different places. Where a SMILES comes first, the peptide text is derived from it. Where no end group is shown, it is not given here.

Columns and labels:
[1] = system: intact rat ventricular cardiomyocytes; format: cell-based; conditions: not told
Description: Equivalent bioactivity of native human S100A1 protein and the 20-mer C-terminal peptide was shown by the inventors in chemically permeabilized cardiac and skeletal muscle cell preparations enabling intracellular access and regulation of RyR2 and RyR1 function. FIG. 4 depicts a similar intracellular binding pattern for rhodamine-labeled recombinant human S100A1 protein (10415 Mw) (FIG. 4A/B) and the 20-mer FITC-labeled synthetic S100A1 C-terminal peptide (2258 Mw) (FIG. 4C/D).
S100A1ct6/11 refers to the peptide D-K-D-D-P-P-Y-V-V-L-V-A-A-L-T-V-A (SEQ ID NO: 372), wherein the sequence D-K-D-D-P-P (SEQ ID NO: 354) is a hydrophilic motif and the sequence Y-V-V-L-V-A-A-L-T-V-A (SEQ ID NO: 390) are amino acids 75 to 85 of the human S100A1 protein.
FITC-labeled S100A1ct6/11 was incubated with intact rat ventricular cardiomyocytes for 15 minutes before the cells were monitored using confocal laser scanning microscopy. Endogenous S100A1 protein was stained using a conventional immunofluorescence protocol.

[2] = system: isolated rat ventricular cardiomyocytes; format: cell-based; conditions: for effect on calcium transient amplitudes: field-stimulated (1 Hz) isolated rat ventricular cardiomyocytes, FIG. 25; for inotropic effect (calcium transients): basal conditions, intact field-stimulated cardiomyocytes; for inotropic effect (calcium transients) under βAR stimulation: β-AR stimulated, 10^−9 M Isoproterenol
[3] = system: permeabilized cardiomyocytes; experiment: Ca2+-spark frequency in β-escin permeabilized cardiomyocytes; format: cell-based, rabbit
Procedure: Adult ventricular rabbit cardiomyocytes were isolated from four different animals as previously described (Loughrey C. M. et al., 2004, J. Physiol. 556:919-934) and permeabilized using β-escin (0.1 mg/ml). The permeabilized cells were incubated for 1 minute with rhodamine-labeled human S100A1 protein (0.1 μM) or FITC-labeled S100A1 C-terminal 20-mer peptide (0.1 μM) fused to a hydrophilic linker (amino acids 75 to 94 of human S100A1 fused to D-K-D-D-P-P (SEQ ID NO: 354)). Cells were monitored using a Bio-Rad 2000 laser scanning confocal microscope (LSCM). A striated staining pattern can be observed that resembles the ryanodine staining pattern (FIG. 4).
Isolated cardiomyocytes were perfused with a mock intracellular solution and permeabilized using β-escin (0.1 mg/ml). Fluo-3 free acid (10 μM) present in the perfusing solution was excited at 488 nm (Kr-laser) and measured at >515 nm applying epifluorescence optics of an inverted microscope with a ×60-1.2 NA water-immersion objective lens. Fluorescence was acquired in line scan mode at 2 ms line^−1; pixel dimension was 0.3 μm (512 pixels scan^−1; zoom=1.4). The scanning laser line orientated parallel with the long axis and placed approximately equidistant between the outer edge of the cell and the nucleus/nuclei, to ensure the nuclear area was not included in the scan line. To enable this trace to be converted to free calcium concentration ([Ca^2+]) a series of calibration solutions were used at the end of each Ca^2+-spark measurement period incorporating 10 mM EGTA. In all experiments concerning Ca^2+-sparks, the [Ca^2+] in the test solution was 145-160 nM. Ca^2+-sparks recorded in Fluo-3-containing solutions were quantified using an automated detection and measurement algorithm. All Ca^2+-spark measurements were made within 7-8 min of cell permeabilization. This time was standardized to minimize loss of soluble proteins. S100A1 protein or S100A1-ct peptide was applied in mock solution using a gravity-fed perfusion system. […]

skeletal muscle fibers = experiment: Calcium homeostasis in intact skeletal muscle fibers; format: cell-based
[4] = system: permeabilized EDL murine skeletal muscle fibers; experiment: Isometric twitch force in permeabilized skeletal muscle fibers; format: cell-based, mouse
Procedure: Muscle Fiber Preparation and Experimental Solutions. All of the animals were handled according to the guidelines of the animal care committee of the University of Heidelberg. Male BALB/c mice (3-6-months-old) were sacrificed by an overdose of carbon dioxide, and muscle fiber preparation was carried out as previously described (Fink R. H. and Stephenson D. G., 1987, Pflugers Arch. Eur. J. Physiol. 409:374-380; Makabe M. et al., 1996, Pflugers Arch. Eur. J. Physiol. 432: 717-726). Either EDL (M. ext. dig. longum) or Soleus was isolated, and a small fiber bundle containing two to four single fibers (between 80 and 150 μm in diameter and 3-4-mm-long) was dissected in paraffin oil. […] The free ion concentrations were calculated with the computer program REACT (version 2.0) from G. L. Smith (Glasgow, Scotland). […]
Muscle fibers were skinned for 5 min in skinning solution while the sarcomere length was adjusted to 2.6±0.1 μm using the diffraction pattern of a helium-neon laser. […] Maximum force was measured in the high activating solution at pCa 4.28 and 5 mM caffeine. […] Several control transients were recorded before the fiber was exposed to the S100A1 protein or the S100A1 peptide mixture (N/H/C) or the C-terminal 20-mer alone, and the experiment was repeated as outlined above. […] The correlation coefficients were calculated to determine the accuracy of the fit. […]

[5] = system: adult intact cardiomyocytes; experiment: Calcium homeostasis in adult intact cardiomyocytes; format: cell-based

CC(C)C[C@H](NC(=O)[C@H](C)NC(=O)[C@H](C)NC(=O)[C@@H](NC(=O)[C@H](CC(C)C)NC(=O)[C@@H](NC(=O)[C@@H](NC(=O)[C@@H](N)Cc1ccc(O)cc1)C(C)C)C(C)C)C(C)C)C(=O)N[C@H](C(=O)N[C@H](C(=O)N[C@@H](C)C(=O)N[C@@H](CS)C(=O)N[C@@H](CC(N)=O)C(=O)N[C@@H](CC(N)=O)C(=O)N[C@@H](Cc1ccccc1)C(=O)N[C@@H](Cc1ccccc1)C(=O)N[C@@H](Cc1c[nH]c2ccccc12)C(=O)N[C@@H](CCC(=O)O)C(=O)N[C@@H](CC(N)=O)C(=O)N[C@@H](CO)C(=O)O)C(C)C)[C@@H](C)O [20-mer S100A1 C-terminal peptide, YVVLVAALTVACNNFFWENS, reference compound] (H-YVVLVAALTVACNNFFWENS-OH; N-terminus and C-terminus assumed)
ability to permeate the cell membrane of intact cardiomyocytes [1]: cell-impermeable

CC(C)C[C@H](NC(=O)[C@H](C)NC(=O)[C@H](C)NC(=O)[C@@H](NC(=O)[C@H](CC(C)C)NC(=O)[C@@H](NC(=O)[C@@H](NC(=O)[C@H](Cc1ccc(O)cc1)NC(=O)[C@@H]1CCCN1C(=O)[C@@H]1CCCN1C(=O)[C@H](CC(=O)O)NC(=O)[C@H](CC(=O)O)NC(=O)[C@H](CCCCN)NC(=O)[C@@H](N)CC(=O)O)C(C)C)C(C)C)C(C)C)C(=O)N[C@H](C(=O)N[C@H](C(=O)N[C@@H](C)C(=O)O)C(C)C)[C@@H](C)O [S100A1ct6/11, D-K-D-D-P-P-Y-V-V-L-V-A-A-L-T-V-A] (H-DKDDPPYVVLVAALTVA-OH; N-terminus and C-terminus assumed)
EC50 [2]: 87 ± 6 nM | ability to permeate the cell membrane of intact cardiomyocytes [1]: cell permeable

D-K-D-D-P-P (DKDDPP; hydrophilic motif) [linker, reference compound]
effect on calcium transient amplitudes [2]: do not exhibit the inotropic effect

D-K-D-D-P-P-V-V-L-V-A-A-L-T-V-A (DKDDPPVVLVAALTVA; amino acids 76 to 85 of human S100A1 fused to a hydrophilic motif) [N-76-85-C, amino acids 76 to 85 of human S100A1 fused to a hydrophilic linker (D-K-D-D-P-P)]
effect on calcium transient amplitudes ([2]; listed as peptide consisting of amino acids 76 to 85 of human S100A1 fused to a hydrophili): exerts the same inotropic function as the S100A1ct6/11 peptide

DKDDPP-FMAFVAMVTTA (DKDDPPFMAFVAMVTTA; amino acids 75 to 85 of S100B fused to a hydrophilic motif) [amino acids 75-85 of S100B fused to a hydrophilic motif, reference compound]
inotropic effect (calcium transients) [2]: fail to reproduce S100A1ct6/11 inotropic actions | inotropic effect (calcium transients) under βAR stimulation [2]: neither S100A4ct nor S100Bct mimic S100A1ct6/11 inotropic effects

DKDDPP-YCVFLSCIAMM (DKDDPPYCVFLSCIAMM; amino acids 75 to 85 of S100A4 fused to a hydrophilic motif) [amino acids 75-85 of S100A4 fused to a hydrophilic motif, reference compound]
inotropic effect (calcium transients) [2]: fail to reproduce S100A1ct6/11 inotropic actions | inotropic effect (calcium transients) under βAR stimulation [2]: neither S100A4ct nor S100Bct mimic S100A1ct6/11 inotropic effects

N-77-85-C: amino acids 77 to 85 of human S100A1 protein set forth in SEQ ID NO: 1 (VLVAALTVA; listed as Homo sapiens)
effect on calcium transient amplitudes [2]: abolishes the inotropic effect

N-78-85-C: amino acids 78 to 85 of human S100A1 protein set forth in SEQ ID NO: 1 (LVAALTVA; listed as Homo sapiens)
effect on calcium transient amplitudes [2]: abolishes the inotropic effect

N-79-85-C: amino acids 79 to 85 of human S100A1 protein set forth in SEQ ID NO: 1 (VAALTVA; listed as Homo sapiens)
effect on calcium transient amplitudes [2]: abolishes the inotropic effect

S100A1 C-terminal 20-mer peptide fused to a hydrophilic linker: amino acids 75 to 94 of human S100A1 fused to D-K-D-D-P-P (SEQ ID NO: 354) (YVVLVAALTVACNNFFWENS; also: fused to hydrophilic linker D-K-D-D-P-P, end not given here; UniProt P23297 75-94, looked up, fragment) [reference compound]
diastolic calcium spark frequency [3]: decrease calcium spark frequency

B1: S100A1 protein: native human S100A1 protein, 94 amino acids, SEQ ID NO: 1 (protein, listed as Homo sapiens)
chain: MGSELETAMETLINVFHAHSGKEGDKYKLSKKELKELLQTELSGFLDAQKDVDAVDKVMKELDENGDGEVDFQEYVVLVAALTVACNNFFWENS
calcium homeostasis (skeletal muscle fibers): does not alter | isometric twitch force [4]: enhances; also recorded: equivalent biological potency to enhance isometric force | isometric twitch force ([4]; listed as full-length S100A1 protein): has a potency to enhance isometric twitch force | RyR2 activity [3]: decreases | diastolic calcium spark frequency [3]: decrease calcium spark frequency; also recorded: decreases | calcium homeostasis [5]: does not alter
